Patent US20080242878A1, “Semi-Synthetic Taxane Derivatives With Antitumor Activity” (priority 2005, published 2008)

Experiments:
MCF7 = test: Cytotoxicity, SRB test, 72 h exposure, MCF7; conditions: Homo sapiens, MCF7, 72 h, read-out: Cytotoxicity (IC50 (nM) 72 h exposure of cells to compound ± SE (SRB test) MCF7)
MCF7/R = test: Cytotoxicity, SRB test, 72 h exposure, MCF7/R (resistant cells); conditions: for IC50: Homo sapiens, MCF7R, 72 h, read-out: Cytotoxicity (IC50 (nM) 72 h exposure of cells to compound ± SE (SRB test) MCF7/R); for RI (cross-resistance index): IC50 MCF7/R versus IC50 MCF7

Structure (SMILES)	IC50 (MCF7)	IC50 (MCF7/R)	RI (cross-resistance index) (MCF7/R)
CO/C1=C(\C)C([C@]2(OC(C)=O)CO[C@@H]2CCOCSC)[C@H](OC(=O)c2ccccc2)[C@]2(O)C[C@H](OC(=O)[C@H](O)[C@H](CC(C)C)NC(=O)OC(C)(C)C)C(C)=C(C1=O)C2(C)C (stereo partly drawn) [Ex. 2, 13-(N-Boc-β-isobutyl-isoserinoyl)-9-O-methyl-7-O-methylthiomethyl-C7,8-seco-10-deacetylbaccatin III]	103 ± 13 nM	558 ± 28 nM	5.4
CO/C1=C(\C)C([C@]2(OC(C)=O)CO[C@@H]2CCO)[C@H](OC(=O)c2ccccc2)[C@]2(O)C[C@H](OC(=O)[C@H](O)[C@H](CC(C)C)NC(=O)OC(C)(C)C)C(C)=C(C1=O)C2(C)C (stereo partly drawn) [Ex. 3, 13-(N-Boc-β-isobutyl-isoserinoyl)-9-O-methyl-C7,8-seco-10-deacetylbaccatin III]	38 ± 3.9 nM	945 ± 40 nM	25
CSCOCC[C@H]1OC[C@@]1(OC(C)=O)C1/C(C)=C(/O)C(=O)C2=C(C)[C@@H](OC(=O)[C@H](O)[C@H](CC(C)C)NC(=O)OC(C)(C)C)C[C@@](O)([C@H]1OC(=O)c1ccccc1)C2(C)C (stereo partly drawn) [Ex. 4, 13-(N-Boc-β-isobutylisoserinoyl)-7-O-methylthiomethyl-C7,8-seco-10-deacetylbaccatin III]	26 ± 2.1 nM	501 ± 41 nM	19
CSCOCC[C@H]1OC[C@@]1(OC(C)=O)C1/C(C)=C(/OCSC)C(=O)C2=C(C)[C@@H](OC(=O)[C@H](O)[C@H](CC(C)C)NC(=O)OC(C)(C)C)C[C@@](O)([C@H]1OC(=O)c1ccccc1)C2(C)C (stereo partly drawn) [Ex. 5, 13-(N-Boc-β-isobutylisoserinoyl)-7,9-O-bis(methylthiomethyl)-C7,8-seco-10-deacetylbaccatin III]	58 ± 5.9 nM	333 ± 23 nM	5.7
CO/C1=C(\C)C([C@]2(OC(C)=O)CO[C@@H]2CCOC(C)=O)[C@H](OC(=O)c2ccccc2)[C@]2(O)C[C@H](OC(=O)[C@H](O)[C@H](CC(C)C)NC(=O)OC(C)(C)C)C(C)=C(C1=O)C2(C)C (stereo partly drawn) [Ex. 6, 13-(N-Boc-β-isobutylisoserinoyl)-9-O-methyl-7-O-acetyl-C7,8-seco-10-deacetylbaccatin III]	66 ± 5.4 nM	747 ± 45 nM	11
COCC[C@H]1OC[C@@]1(OC(C)=O)C1/C(C)=C(/OC)C(=O)C2=C(C)[C@@H](OC(=O)[C@H](O)[C@H](CC(C)C)NC(=O)OC(C)(C)C)C[C@@](O)([C@H]1OC(=O)c1ccccc1)C2(C)C (stereo partly drawn) [Ex. 7, 13-(N-Boc-β-isobutylisoserinoyl)-7,9-of-O-methyl-C7,8-seco-10-deacetylbaccatin III]	25.5 ± 2.6 nM	168 ± 9.5 nM	6.6
CC(=O)O[C@@]1(C2/C(C)=C(/O)C(=O)C3=C(C)[C@@H](OC(=O)[C@H](O)[C@H](CC(C)C)NC(=O)OC(C)(C)C)C[C@@](O)([C@H]2OC(=O)c2ccccc2)C3(C)C)CO[C@@H]1CCO (stereo partly drawn) [IDN 5390, reference compound]	11.2 ± 0.81 nM	1040 ± 93 nM	93
